Data taken from the supplement of paper PMC10307832.

Columns and labels:
Experiment in all cases: relative viability (nuclei count vs DMSO), 5 days (fraction); higher = more cells survive
Gemcitabine + Crizotinib = compound: Nc1ccn([C@@H]2O[C@H](CO)[C@@H](O)C2(F)F)c(=O)n1 [Gemcitabine] + C[C@@H](Oc1cc(-c2cnn(C3CCNCC3)c2)cnc1N)c1c(Cl)ccc(F)c1Cl [Crizotinib] (partner 1 µM)
In short: (§1)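 Lung cancer cell lines were seeded in 1536-well plates and dosed by pin tool the next day, with either a single drug or a fixed anchor-drug dose combined with five library-drug doses (not always all listed) spaced in √10 steps. Five days later, one step fixed the cells and stained their nuclei (final 0.05% Triton X-100, 1% formaldehyde, 1 ug/ml Hoechst), and nuclei were counted on 4× images. Relative viability is the nuclei count in treated wells divided by the count in vehicle wells, and each value is the median of duplicate plates.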

Gemcitabine + Vorinostat = compound: Nc1ccn([C@@H]2O[C@H](CO)[C@@H](O)C2(F)F)c(=O)n1 [Gemcitabine] + O=C(CCCCCCC(=O)Nc1ccccc1)NO [Vorinostat] (partner 1 µM)
In short: as §1

Gemcitabine + Navitoclax = compound: Nc1ccn([C@@H]2O[C@H](CO)[C@@H](O)C2(F)F)c(=O)n1 [Gemcitabine] + CC1(C)CCC(c2ccc(Cl)cc2)=C(CN2CCN(c3ccc(C(=O)NS(=O)(=O)c4ccc(N[C@H](CCN5CCOCC5)CSc5ccccc5)c(S(=O)(=O)C(F)(F)F)c4)cc3)CC2)C1 [Navitoclax] (partner 0.5 µM)
In short: as §1

Gemcitabine + Dasatinib = compound: Nc1ccn([C@@H]2O[C@H](CO)[C@@H](O)C2(F)F)c(=O)n1 [Gemcitabine] + Cc1nc(Nc2ncc(C(=O)Nc3c(C)cccc3Cl)s2)cc(N2CCN(CCO)CC2)n1 [Dasatinib] (partner 0.075 µM)
In short: as §1

Row | Cell Line | relative viability (Gemcitabine + Crizotinib; first compound 0.001 µM) | relative viability (Gemcitabine + Crizotinib; first compound 0.003162 µM) | relative viability (Gemcitabine + Crizotinib; first compound 0.01 µM) | relative viability (Gemcitabine + Crizotinib; first compound 0.03162 µM) | relative viability (Gemcitabine + Crizotinib; first compound 0.1 µM) | relative viability (Gemcitabine + Vorinostat; first compound 0.001 µM) | relative viability (Gemcitabine + Vorinostat; first compound 0.003162 µM) | relative viability (Gemcitabine + Vorinostat; first compound 0.01 µM) | relative viability (Gemcitabine + Vorinostat; first compound 0.03162 µM) | relative viability (Gemcitabine + Vorinostat; first compound 0.1 µM) | relative viability (Gemcitabine + Navitoclax; first compound 0.001 µM) | relative viability (Gemcitabine + Navitoclax; first compound 0.003162 µM) | relative viability (Gemcitabine + Navitoclax; first compound 0.01 µM) | relative viability (Gemcitabine + Navitoclax; first compound 0.03162 µM) | relative viability (Gemcitabine + Navitoclax; first compound 0.1 µM) | relative viability (Gemcitabine + Dasatinib; first compound 0.001 µM) | relative viability (Gemcitabine + Dasatinib; first compound 0.003162 µM) | relative viability (Gemcitabine + Dasatinib; first compound 0.01 µM) | relative viability (Gemcitabine + Dasatinib; first compound 0.03162 µM) | relative viability (Gemcitabine + Dasatinib; first compound 0.1 µM)
1 | NCI-H2087 | 0.963 | 0.8 | 0.405 | 0.133 | 0.161 | 0.862 | 0.174 | 0.304 | 0.0713 | 0.109 | 1.11 | 0.813 | 0.397 | 0.156 | 0.153 | 0.746 | 0.499 | 0.169 | 0.0893 | 0.0871
2 | NCI-H2228 | 0.615 | 0.326 | 0.233 | 0.141 | 0.166 | 0.429 | 0.374 | 0.226 | 0.0768 | 0.217 | 1.13 | 0.407 | 0.203 | 0.0863 | 0.0652 | 0.529 | 0.3 | 0.118 | 0.111 | 0.087
3 | NCI-H727 | 0.771 | 0.32 | 0.243 | 0.266 | 0.219 | 1.29 | 0.716 | 0.456 | 0.513 | 0.428 | 0.311 | 0.229 | 0.115 | 0.146 | 0.081 | 0.303 | 0.33 | 0.295 | 0.264 | 0.345
4 | NCI-H650 | 0.578 | 0.322 | 0.176 | 0.177 | 0.167 | 0.38 | 0.25 | 0.15 | 0.121 | 0.111 | – | – | – | – | – | 0.428 | 0.329 | 0.228 | 0.149 | 0.157
5 | NCI-H520 | 0.915 | 0.769 | 0.465 | 0.156 | 0.108 | 0.728 | 0.81 | 0.336 | 0.211 | 0.157 | 1.23 | 1.17 | 0.35 | 0.205 | 0.158 | 0.212 | 0.258 | 0.161 | 0.151 | 0.154
6 | EBC-1 | 0.192 | 0.166 | 0.161 | 0.134 | 0.159 | – | – | – | – | – | 0.268 | 0.187 | 0.136 | 0.19 | 0.126 | – | – | – | – | –
7 | NCI-H661 | 1.09 | 0.983 | 0.856 | 0.333 | 0.285 | 0.766 | 0.725 | 0.598 | 0.303 | 0.234 | – | – | – | – | – | 1.07 | 0.814 | 0.428 | 0.176 | 0.18
8 | NCI-H1299 | 1.03 | 0.977 | 0.973 | 0.995 | 0.983 | – | – | – | – | – | 1.02 | 1.08 | 1.04 | 1.02 | 1.06 | – | – | – | – | –
9 | LK-2 | 0.285 | – | 0.255 | 0.238 | 0.225 | 0.265 | 0.268 | 0.155 | 0.164 | 0.146 | 0.822 | 0.732 | 0.444 | 0.222 | 0.203 | 0.299 | 0.356 | 0.174 | 0.201 | 0.158
10 | NCI-H1993 | 0.89 | 0.891 | 0.668 | 0.549 | 0.461 | 0.723 | 0.904 | 0.547 | 0.471 | 0.317 | 1.1 | 1.01 | 0.583 | 0.673 | 0.513 | 0.617 | 0.529 | 0.446 | 0.509 | 0.42
11 | NCI-H838 | 0.912 | 0.981 | 0.858 | 0.324 | 0.139 | 0.77 | 0.777 | 0.66 | 0.479 | 0.168 | 1.17 | 1.36 | 1.09 | 0.367 | 0.176 | 0.293 | 0.287 | 0.318 | 0.261 | 0.136
12 | SW 900 | – | – | – | – | – | 0.476 | 0.374 | 0.236 | 0.129 | 0.146 | – | – | – | – | – | 0.526 | 0.138 | 0.0977 | 0.0689 | 0.0628
13 | LCLC-103H | 1.12 | 1.07 | 0.934 | 0.997 | 0.272 | 0.761 | 0.856 | 0.754 | 0.585 | 0.46 | – | – | – | – | – | 0.54 | 0.53 | 0.502 | 0.179 | 0.223
14 | NCI-H522 | – | – | – | – | – | 0.829 | 0.63 | 0.4 | 0.331 | 0.294 | – | – | – | – | – | 0.987 | 0.722 | 0.384 | 0.42 | 0.36
15 | IA-LM | – | 0.615 | 0.254 | 0.0992 | 0.0456 | 0.943 | 0.907 | 0.865 | 0.0796 | 0.0532 | 0.896 | 0.796 | 0.409 | 0.0336 | 0.0251 | – | – | – | – | –
16 | NCI-H1563 | 0.861 | 0.993 | 0.917 | 0.635 | 0.411 | – | – | – | – | – | – | – | – | – | – | 0.433 | 0.46 | 0.457 | 0.378 | 0.373
17 | HCC-44 | 0.825 | 0.756 | 0.614 | 0.201 | 0.154 | 1.1 | 1.13 | 1.04 | 0.651 | 0.418 | 0.97 | 0.993 | 0.893 | 0.173 | 0.154 | – | – | – | – | –
18 | NCI-H358 | 0.494 | 0.228 | 0.188 | 0.166 | 0.135 | 0.988 | 0.186 | 0.0888 | 0.113 | 0.0707 | – | – | – | – | – | 0.21 | 0.151 | 0.0931 | 0.0759 | 0.0931
19 | ABC-1 | 1.2 | 1.4 | 0.829 | 0.342 | 0.114 | – | 1.26 | 1.06 | 0.303 | 0.256 | – | – | – | – | – | 0.548 | 0.483 | 0.373 | 0.175 | 0.175
20 | NCI-H2342 | – | – | – | – | – | 0.732 | 0.56 | 0.452 | 0.346 | 0.289 | – | – | – | – | – | 0.312 | 0.277 | 0.282 | 0.233 | 0.293
21 | NCI-H1792 | 1.05 | 0.897 | 0.222 | 0.0949 | 0.0981 | – | – | – | – | – | 0.828 | 0.581 | 0.133 | 0.0844 | 0.0803 | 0.785 | 0.485 | 0.329 | 0.192 | 0.142
